Laboratory results as given in PubChem BioAssay AID248 (DTP/NCI, 2004).
“And” between values parts separate entries of the source, which are not always exact repeats. Identical values can stand only once. Inconclusive results and toxic doses are left out.

System: L1210 leukemia ip in BDF1 mice, survival T/C
Assay: NCI In Vivo Anticancer Drug Screen. Data for tumor model L1210 Leukemia (intraperitoneal) in B6D2F1 (BDF1) mice
Conditions: endpoint: mean survival time, higher = longer survival
Outline: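 Transplantable tumor model; survival measured in treated vs vehicle control mice. Value = treated/control.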

[1] = dose: 25.0 mg/kg/injection, schedule: Q01DX009 (ip), vehicle: Klucel (hydroxypropylcellulose) (HPC)
[2] = dose: 25.0 mg/kg/injection, schedule: Q04DX003 (ip), vehicle: Klucel (hydroxypropylcellulose) (HPC)
[3] = dose: 50.0 mg/kg/injection, schedule: Q04DX003 (ip), vehicle: Klucel (hydroxypropylcellulose) (HPC)
[4] = dose: 100.0 mg/kg/injection, schedule: Q01DX001 (ip), vehicle: Klucel (hydroxypropylcellulose) (HPC)
[5] = dose: 200.0 mg/kg/injection, schedule: Q01DX001 (ip), vehicle: Klucel (hydroxypropylcellulose) (HPC)
[6] = dose: 100.0 mg/kg/injection, schedule: Q04DX002 (ip), vehicle: saline
[7] = dose: 200.0 mg/kg/injection, schedule: Q04DX002 (ip), vehicle: saline
[8] = dose: 400.0 mg/kg/injection, schedule: Q04DX002 (ip), vehicle: saline
[9] = dose: 100.0 mg/kg/injection, schedule: Q01DX009 (ip), vehicle: Klucel (hydroxypropylcellulose) (HPC)
[10] = dose: 200.0 mg/kg/injection, schedule: Q01DX009 (ip), vehicle: Klucel (hydroxypropylcellulose) (HPC)
[11] = dose: 400.0 mg/kg/injection, schedule: Q01DX009 (ip), vehicle: Klucel (hydroxypropylcellulose) (HPC)
[12] = dose: 50.0 mg/kg/injection, schedule: Q01DX009 (ip), vehicle: Klucel (hydroxypropylcellulose) (HPC)
[13] = dose: 100.0 mg/kg/injection, schedule: Q04DX003 (ip), vehicle: Klucel (hydroxypropylcellulose) (HPC)
[14] = dose: 200.0 mg/kg/injection, schedule: Q04DX003 (ip), vehicle: Klucel (hydroxypropylcellulose) (HPC)
[15] = dose: 400.0 mg/kg/injection, schedule: Q04DX003 (ip), vehicle: Klucel (hydroxypropylcellulose) (HPC)
[16] = dose: 100.0 mg/kg/injection, schedule: Q04DX003 (ip), vehicle: saline
[17] = dose: 200.0 mg/kg/injection, schedule: Q04DX003 (ip), vehicle: saline
[18] = dose: 400.0 mg/kg/injection, schedule: Q04DX003 (ip), vehicle: saline

CN(C)C(C#N)c1c[nH]c2ccccc12 (stereo not given)
T/C (dose: 12.5 mg/kg/injection, schedule: Q01DX009 (ip), vehicle: Klucel (hydroxypropylcellulose) (HPC)): 87 % of control | T/C (dose: 12.5 mg/kg/injection, schedule: Q04DX003 (ip), vehicle: Klucel (hydroxypropylcellulose) (HPC)): 97 % of control | T/C [1]: 97 % of control | T/C [2]: 97 % of control | T/C [3]: 94 % of control

Cc1ccc(SSSc2ccc(C)cc2[N+](=O)[O-])c([N+](=O)[O-])c1
T/C (dose: 50.0 mg/kg/injection, schedule: Q04DX002 (ip), vehicle: saline with Tween-80): 88 % of control | T/C (dose: 100.0 mg/kg/injection, schedule: Q04DX002 (ip), vehicle: saline with Tween-80): 88 % of control | T/C (dose: 200.0 mg/kg/injection, schedule: Q04DX002 (ip), vehicle: saline with Tween-80): 98 % of control

O=[N+]([O-])c1ccc(N2CCCCC2)nc1
T/C (dose: 50.0 mg/kg/injection, schedule: Q01DX001 (ip), vehicle: carboxymethylcellulose (CMC)): 115 % of control | T/C (dose: 100.0 mg/kg/injection, schedule: Q01DX001 (ip), vehicle: carboxymethylcellulose (CMC)): 91 % of control | T/C (dose: 200.0 mg/kg/injection, schedule: Q01DX001 (ip), vehicle: carboxymethylcellulose (CMC)): 115 % of control | T/C (dose: 400.0 mg/kg/injection, schedule: Q01DX001 (ip), vehicle: carboxymethylcellulose (CMC)): 97 % of control

Cc1ccccc1C[As](C)(=O)O
T/C [4]: 98 % of control | T/C [5]: 118 % of control

CC(=O)N(C)c1ccc(NC(=S)NC(=O)c2cccc([N+](=O)[O-])c2)cc1
T/C (dose: 25.0 mg/kg/injection, schedule: Q01DX009 (ip), vehicle: saline with Tween-80): 97 % of control and 109 % of control | T/C (dose: 50.0 mg/kg/injection, schedule: Q01DX009 (ip), vehicle: saline with Tween-80): 98 % of control and 108 % of control | T/C (dose: 100.0 mg/kg/injection, schedule: Q01DX001 (ip), vehicle: saline with Tween-80): 97 % of control | T/C [6]: 93 % of control and 101 % of control | T/C (dose: 200.0 mg/kg/injection, schedule: Q01DX001 (ip), vehicle: saline with Tween-80): 92 % of control | T/C [7]: 96 % of control and 97 % of control | T/C (dose: 400.0 mg/kg/injection, schedule: Q01DX001 (ip), vehicle: saline with Tween-80): 92 % of control | T/C (dose: 400.0 mg/kg/injection, schedule: Q01DX009 (ip), vehicle: saline with Tween-80): 93 % of control and 105 % of control | T/C [8]: 101 % of control and 104 % of control

O=C(NCc1ccccc1Cl)Nc1ccccc1F
T/C [9]: 106 % of control | T/C [10]: 98 % of control | T/C [11]: 115 % of control

FC1(F)C=C(c2ccccc2)C1(Cl)Cl
T/C [1]: 102 % of control | T/C [12]: 100 % of control | T/C [9]: 92 % of control and 98 % of control | T/C [13]: 107 % of control | T/C [14]: 113 % of control

C[n+]1ccccc1/C=C/c1ccc2cccc(O)c2n1
T/C (dose: 2.0 mg/kg/injection, schedule: Q01DX015 (ip), vehicle: saline): 95 % of control | T/C (dose: 4.0 mg/kg/injection, schedule: Q01DX015 (ip), vehicle: saline): 95 % of control | T/C (dose: 8.0 mg/kg/injection, schedule: Q01DX015 (ip), vehicle: saline): 94 % of control | T/C (dose: 16.0 mg/kg/injection, schedule: Q01DX015 (ip), vehicle: saline): 101 % of control | T/C (dose: 32.0 mg/kg/injection, schedule: Q01DX015 (ip), vehicle: saline): 97 % of control | T/C (dose: 75.0 mg/kg/injection, schedule: Q01DX001 (ip), vehicle: saline): 102 % of control

OCC1OC(n2cnc3c(NO)nc(NO)nc32)C(O)C1O (stereo not given)
T/C (dose: 30.0 mg/kg/injection, schedule: Q01DX009 (ip), vehicle: saline): 151 % of control | T/C (dose: 150.0 mg/kg/injection, schedule: Q01DX001 (ip), vehicle: saline): 115 % of control

Nc1ccc(CCNS(=O)(=O)c2ccc(S(=O)(=O)F)cc2)cc1
T/C (dose: 100.0 mg/kg/injection, schedule: Q01DX001 (ip), vehicle: saline): 103 % of control | T/C (dose: 200.0 mg/kg/injection, schedule: Q01DX001 (ip), vehicle: saline): 97 % of control | T/C (dose: 400.0 mg/kg/injection, schedule: Q01DX001 (ip), vehicle: saline): 107 % of control

CCCCC(CC)CCC(O)CCC(CC)CC (stereo not given)
T/C [13]: 102 % of control | T/C [14]: 98 % of control | T/C [15]: 102 % of control

c1ccc(C2=C(c3ccccc3)c3cccc4cccc2c34)cc1
T/C (dose: 100.0 mg/kg/injection, schedule: Q01DX001 (ip), vehicle: acetone): 100 % of control | T/C (dose: 100.0 mg/kg/injection, schedule: Q01DX009 (ip), vehicle: acetone): 87 % of control | T/C [16]: 94 % of control | T/C (dose: 200.0 mg/kg/injection, schedule: Q01DX001 (ip), vehicle: acetone): 89 % of control | T/C (dose: 200.0 mg/kg/injection, schedule: Q01DX009 (ip), vehicle: acetone): 96 % of control | T/C [17]: 97 % of control | T/C (dose: 400.0 mg/kg/injection, schedule: Q01DX001 (ip), vehicle: acetone): 94 % of control | T/C (dose: 400.0 mg/kg/injection, schedule: Q01DX009 (ip), vehicle: acetone): 87 % of control | T/C [18]: 92 % of control

Cc1ccc(S(=O)(=O)CC(=O)NC(N)=O)cc1
T/C [16]: 92 % of control | T/C [17]: 103 % of control | T/C [18]: 105 % of control

CCCCCNS(=O)(=O)CCCC
T/C (dose: 100.0 mg/kg/injection, schedule: Q04DX002 (ip), vehicle: other): 111 % of control | T/C (dose: 200.0 mg/kg/injection, schedule: Q04DX002 (ip), vehicle: other): 96 % of control | T/C (dose: 400.0 mg/kg/injection, schedule: Q04DX002 (ip), vehicle: other): 103 % of control

CC1(C)N=C(N)N=C(N)N1c1cccc(CC(=O)Nc2ccccc2)c1
T/C (dose: 12.5 mg/kg/injection, schedule: Q01DX009 (ip), vehicle: saline): 102 % of control | T/C (dose: 25.0 mg/kg/injection, schedule: Q01DX009 (ip), vehicle: saline): 98 % of control | T/C (dose: 50.0 mg/kg/injection, schedule: Q01DX009 (ip), vehicle: saline): 102 % of control | T/C (dose: 100.0 mg/kg/injection, schedule: Q01DX009 (ip), vehicle: saline): 96 % of control | T/C (dose: 200.0 mg/kg/injection, schedule: Q01DX009 (ip), vehicle: saline): 98 % of control

CC(C)(C)OC(=O)NOC(=O)c1ccc([N+](=O)[O-])cc1
T/C (dose: 100.0 mg/kg/injection, schedule: Q04DX002 (ip), vehicle: Klucel (hydroxypropylcellulose) (HPC)): 104 % of control | T/C (dose: 200.0 mg/kg/injection, schedule: Q04DX002 (ip), vehicle: Klucel (hydroxypropylcellulose) (HPC)): 96 % of control | T/C (dose: 400.0 mg/kg/injection, schedule: Q04DX002 (ip), vehicle: Klucel (hydroxypropylcellulose) (HPC)): 107 % of control

COc1ccc2c(C(=O)CCC(=O)O)cccc2c1
T/C [16]: 104 % of control | T/C [17]: 95 % of control | T/C [18]: 106 % of control

O=C(CCC(=O)NO)NO
T/C [6]: 110 % of control | T/C [7]: 103 % of control | T/C [8]: 97 % of control

CC(=O)[O][Hg][C]([Hg][O]C(C)=O)([Hg][O]C(C)=O)[Hg][O]C(C)=O
T/C [4]: 91 % of control | T/C [5]: 96 % of control | T/C (dose: 400.0 mg/kg/injection, schedule: Q01DX001 (ip), vehicle: Klucel (hydroxypropylcellulose) (HPC)): 89 % of control

CCCCCCCCCC1CCC(C(=O)O)CC1 (stereo not given)
T/C (dose: 75.0 mg/kg/injection, schedule: Q01DX009 (ip), vehicle: Klucel (hydroxypropylcellulose) (HPC)): 105 % of control | T/C (dose: 150.0 mg/kg/injection, schedule: Q01DX009 (ip), vehicle: Klucel (hydroxypropylcellulose) (HPC)): 96 % of control | T/C (dose: 300.0 mg/kg/injection, schedule: Q01DX009 (ip), vehicle: Klucel (hydroxypropylcellulose) (HPC)): 98 % of control

CCN(CC)C(=S)SSC(=S)N(CC)CC
T/C [1]: 100 % of control | T/C [2]: 93 % of control | T/C [12]: 100 % of control | T/C [3]: 93 % of control | T/C [9]: 91 % of control | T/C [13]: 96 % of control and 98 % of control | T/C [10]: 98 % of control and 101 % of control | T/C [14]: 88 % of control and 91 % of control | T/C [11]: 96 % of control and 100 % of control | T/C [15]: 93 % of control and 96 % of control
